Key:
Format in all cases: cell-based
A375 (melanoma) = assay: Cell viability IC50 (CellTiter-Glo), A375; settings: Homo sapiens, A-375, A375, 72 hours
Protocol: (§1) The cancer cell lines were cultured to the logarithmic growth phase according to conventional culture methods, and the cells were inoculated into a 384-well plate at a density of 2,000 cells/well in a volume of 40 μl/well. The concentrations of added compounds were: […], 1.67 μM, 0.56 μM, 0.19 μM, 0.062 μM, 0.021 μM, 0.0069 μM, 0.0023 μM, 0.00076 μM, and 0 μM. After 72 hours, cell viability was detected using the CellTiter-Glo™ Detection Kit.

[1] = system: primary cells from pleural effusion of patients with small cell lung cancer; assay: Cell viability IC50 (CCK-8), summary over primary cells from pleural effusion of patients with small cell lung cancer; settings: Homo sapiens; range over primary cells of patients with small cell lung cancer (Table 4)
Protocol: (§2) (1) Primary cells from lung cancer pleural effusion within 5 generations were cultured to the logarithmic growth phase. When the confluence reached about 90%, the cells were digested with 0.25% trypsin, and complete culture medium was added to collect the cells. After centrifugation at room temperature, the supernatant was discarded, and the cell precipitate was resuspended with fresh complete culture medium. After counting, the cells were placed at room temperature for later use. The cells were inoculated into a 384-well plate at a density of 2000 cells/well with a volume of 40 μl/well. The wells at the outermost circle of the plate were not inoculated with cells, and instead, added with sterile water to reduce evaporation of the culture medium.
(2) After overnight culture of the cells, the medium was discarded, and a fresh medium containing different concentrations of compounds was added at 200 μl/well. The dilution method of the compound was as follows: first the compound with the highest concentration of 10 μM was prepared, and then the compound was diluted for 3 times in sequence. […] At the same time, a blank control group was set up, in which only an equal volume of culture medium was added without adding cells. […]
(4) The light absorbance value at 450 nm was read using a microplate reader, and the IC50 was calculated according to the absorbance value. […]

LT015 primary cells = assay: Cell viability IC50 (CCK-8), primary cells LT015 from small cell lung cancer bronchoscopic biopsy; settings: LT015, CCK-8
Protocol: (1) The tissue blocks obtained from the tumor patients were transferred from the preservation solution to the pre-cooled HBSS buffer containing antibiotics, and the tissue blocks were washed for three times with the pre-cooled HBSS buffer.
(2) Tissue was sheared on ice with sterile surgical instruments until no obvious tissue blocks are visible to the naked eye, the tissue fluid was collected into a 15 ml centrifuge tube, and this process takes about 5 to 10 minutes.
(3) Digestive enzymes (collagenase I, collagenase IV and neutral protease being mixed in a ratio of 1:1:1, a concentration of stock solution was 10 mg/ml, diluted with PBS buffer or HBSS buffer, and the use concentration was 1 mg/ml) were added to the centrifuge tube, and after mixing well by pipetting, the centrifuge tube was placed in a 37° C. constant temperature incubator for 1 to 2 hours.
(4) High-glucose medium was added to the centrifuge tube to stop digestion. After mixing well, the cell precipitate was collected by centrifugation, and resuspended with MBM medium (Advanced DMEM-F12+20 ng/ml bFGF+50 ng/ml EGF+1% ITS-X+2% B27+10 μMY-27632+1% PS). The cell suspension was placed in a Matrigel-coated 24-well plate and cultured for 5 to 7 days. When the cell density in the well plate reaches 80-90%, the cells were sub-cultured into a 6 cm cell culture dish, and when they grew to a density of 80% to 90%, the cells were cryopreserved for preservation.
as §2
(2) After overnight culture of the cells, the medium was discarded, and a fresh medium containing different concentrations of compounds was added at 200 μl/well. The dilution method of the compound was as follows: first the compound with the highest concentration of 10 μM was prepared, and then the compound was diluted for 3 times in sequence. […] At the same time, a blank control group was set up, in which only an equal volume of culture medium was added without adding cells. Five replicate wells were set up for each group. The cells were placed in the incubator for further culture.
(3) After 72 hours, 8 μl of CCK-8 solution, which was double-diluted with 10 mM PBS, was added to each well, and the cells were shaken and placed in an incubator at 37° C. for further culture for 2 hours.
(4) The light absorbance value at 450 nm was read using a microplate reader, and the IC50 was calculated according to the absorbance value. The calculation method was the same as above.
(1) Sample information: PE039, PE052, and PE062 were all primary cell samples from pleural effusion of patients with small cell lung cancer, and LT015 was a primary cell sample from bronchoscopic biopsy of a patient with small cell lung cancer.
(2) CCK-8 detection was used to detect the IC50 values of different medicaments (compounds).

HCT116 (colon cancer) = assay: Cell viability IC50 (CellTiter-Glo), HCT116; settings: Homo sapiens, HCT-116, HCT116, 72 hours
Protocol: as §1

RT-4 (bladder cancer) = assay: Cell viability IC50 (CellTiter-Glo), RT-4; settings: RT-4, 72 hours
Protocol: as §1

CN1CC2CCC(C1)N2Cc1ccc(Nc2ncc(Cl)c(Nc3ccccc3S(=O)(=O)N(C)C)n2)cc1 [Compound 8, 2-((5-chloro-2-((4-((3-methyl-3,8-diazabicyclo[3.2.1]octan-8-yl)methyl)phenyl)amino)pyrimidin-4-yl)amino)-N,N-dimethylbenzenesulfonamide]
IC50 (A375 (melanoma)): 23.3 nM
IC50 [1]: 2.7 to 59.9 nM
IC50 (LT015 primary cells): 6.11 nM
IC50 (HCT116 (colon cancer)): 9 nM
IC50 (RT-4 (bladder cancer)): 54 nM

— patent publication US20240360145A1, “PYRIMIDINE-2,4-DIAMINE DERIVATIVES AS WELL AS PREPARATION METHOD THEREFOR AND USE THEREOF” (LISEN THERAPEUTICS, INC., priority 2022, published 2024)
